Data as given in US20140127287A1, “LIPOSOME-ENCAPSULATED HYDROGELS FOR USE IN A DRUG DELIVERY SYSTEM” (Wisconsin Alumni Research Foundation (WARF), priority 2011, published 2014).

Legend:
[1] = system: human prostate PC-3 cancer cells; assay: Resazurin-based metabolic cytotoxicity assay, PC-3; format: cell-based; conditions: 24 hours exposure, then 24 hours in DMEM; 17-DMAPG equivalents
Procedure: (§1) For cell culture, cells were maintained at 37° C., 5% CO2 and 95% humidity in Dulbecco's modified Eagle's medium (DMEM) supplemented with 10% (v/v) heat inactivated fetal bovine serum (FBS), 2 mM L-glutamine and 100 unit/mL penicillin and 1000 μg/mL streptomycin. Cytotoxicity of 17-DMAPG loaded lipogels was assessed in human prostate PC-3 cancer cells and breast carcinoma MDA-MB-231 cells by resazurin-based metabolic assay. Briefly, cells were seeded in 96-well plates with 5,000 cells per well and allowed to adhere for 24 hours prior to the assay. Cells were exposed to various doses (0-35 μM on 17-DMAPG basis) of free 17-DMAPG, lipogel loaded 17-DMAPG and lipogel alone for 24 hours at 37° C., followed by washing with PBS, and maintaining in DMEM medium with 10% FBS for additional 24 hours. 10 μl of resazurin PBS solution (440 μM) was added into each well and incubated for a further 2 hours. The fluorescence was measured with a microplate reader (SpectraMax Gemini XS, Molecular Devices) with excitation at 560 nm and emission at 590 nm using wells without cells as blanks. […] The reading taken from the wells with cells cultured with control medium was used as 100% viability. The cell viability was calculated as Esample/Econtrol×100%. Based on the results of the test, the IC50 values were calculated on GraphPad Prism 5 Software (San Diego Calif., USA).

[2] = system: breast carcinoma MDA-MB-231 cells; assay: Resazurin-based metabolic cytotoxicity assay, MDA-MB-231; format: cell-based, human; conditions: 24 hours exposure, then 24 hours in DMEM; 17-DMAPG equivalents
Procedure: as §1

[3] = pKa of active agents; format: physicochemical; conditions: pH 6.5
[4] = Heat stability of 17-DMAPG during incubation, HPLC analysis; format: physicochemical; conditions: extended incubation at 65° C.

## CO[C@H]1/C=C\C=C(/C)C(=O)NC2=CC(=O)C(NCCCN(C)C)=C(C[C@@H](C)C[C@H](OC)[C@H](O)[C@@H](C)/C=C(\C)[C@@H]1OC(N)=O)C2=O [17-DMAPG, 17-(dimethylaminopropylamino)-17-demethoxygeldanamycin]
[1]
  IC50: 807 nM
[2]
  IC50: 152 nM
[3]
  fraction protonated and positively charged: approximately 99%
[4]
  heat stability (in words): heat instability
